The test deals with YAP1-TEAD and TAZ-TEAD activity (TEAD responsive promoter element). Nature of the test: TEAD-Luciferase Reporter Assay (8XGTIIC-Luciferase construct stably integrated in tumor cell lines). The test is classed as cell-based, human. As to conditions: 8XGTIIC-Luciferase reporter in tumor cell lines, 48 hrs compound treatment, 10 doses 1-10000 nM. An excerpt:
TEAD-Luciferase Reporter Assay
Luciferase-based gene reporter assays were used, employing the TEAD responsive promoter element that are stably integrated to different human tumor cell lines in order to monitor YAP1-TEAD and TAZ-TEAD activity and to study YAP1/TAZ-TEAD activity modulation by small molecule compounds. Luciferase-based gene reporter assays employing the GAPDH promoter element and stably integrated to different human tumor cell lines are used as counter screen control cell lines.
Tumor cell lines with stable integration of the 8XGTIIC-Luciferase construct (Dupont et al., Nature 2011) or the GAPDH-Luciferase control plasmid, are seeded in culture medium in 96-well plates at a density of 8000 cells/well. Following an overnight incubation in a 37° C., 5% CO2 growth chamber, cells are treated with compounds described above at 10 doses ranging between 1 and 10000 nM for 48 hrs. After compound incubation, cells are lysed with Bright-Glo Luciferase Assay System (Promega E2620) and luciferase activity is measured using a luminescent plate reader.
The inhibitory activity of the compounds with respect to luciferase activity is given by the concentration which inhibits 50% of activity of non-treated cells. IC50s are determined with a nonlinear regression model on XLfit software analysis (IDBS, UK).

This passage reports IC50 results from patent US12441679B2, “Acrylamide-substituted indane compounds and therapeutic use thereof” (Sanofi, priority 2020, dated 2025).

In general, IC50 refers to the point on the concentration scale where inhibition reaches its midpoint. Higher therefore signals weaker potency.

The compound “(S)—N-(1-((3-(trifluoromethyl)phenyl)amino)-2,3-dihydro-1H-inden-5-yl)acrylamide [Example 3]” had a half-inhibitory concentration (IC50) of 109 nM.

In the case of `C=CC(=O)Nc1ccc2c(c1)C(OCCCCF)CC2` (stereo not shown) [Example 34, N-(3-(4-fluorobutoxy)-2,3-dihydro-1H-inden-5-yl)acrylamide], under “Homo sapiens”, 2530 nM corresponded to half-maximal inhibition (IC50).

`C=CC(=O)Nc1ccc2c(c1)C(Oc1ccc(C(F)(F)F)cc1)C(F)C2` (stereo not shown) [Example 92, N-[2-fluoro-3-[4-(trifluoromethyl)phenoxy]-2,3-dihydro-1H-inden-5-yl]acrylamide] yielded an IC50 (Homo sapiens) of 95 nM.

`C=CC(=O)Nc1ccc2c(c1)C(Nc1cccc(F)c1)CC2` (stereo not shown) [Example 14, N-(3-((3-fluorophenyl)amino)-2,3-dihydro-1H-inden-5-yl)acrylamide] gave an IC50 (Homo sapiens) of 54 nM.

Compound `C=CC(=O)Nc1ccc2c(c1)C(OCCCCC(F)(F)F)CC2` (stereo not shown) [Example 72, N-(3-((5,5,5-trifluoropentyl)oxy)-2,3-dihydro-1H-inden-5-yl)acrylamide] registered a 50% inhibitory concentration (IC50) (Homo sapiens) of 861 nM.

The compound `C=CC(=O)Nc1ccc2c(c1)C(NCc1ccccc1)CC2` (stereo not shown) [Example 23, N-(3-(benzylamino)-2,3-dihydro-1H-inden-5-yl)acrylamide] displayed an IC50 (Homo sapiens) of 9530 nM.

The compound `C=CC(=O)Nc1ccc2c(c1)C(O[C@H]1CC[C@H](C(F)(F)F)CC1)CC2` (relative stereo) [Example 36, N-(3-(((trans)-4-(trifluoromethyl)cyclohexyl)oxy)-2,3-dihydro-1H-inden-5-yl)acrylamide] displayed an IC50 (Homo sapiens) of 99 nM.

`C=CC(=O)Nc1ccc2c(c1)C(Oc1cc(F)cc(F)c1)CC2` (stereo not shown) [Example 43, N-(3-(3,5-difluorophenoxy)-2,3-dihydro-1H-inden-5-yl)acrylamide] gave an IC50 (Homo sapiens) of 140 nM.

`C=CC(=O)Nc1ccc2c(c1)C(Oc1ccc(Cl)cc1)CC2` (stereo not shown) [Example 77, N-(3-(4-chlorophenoxy)-2,3-dihydro-1H-inden-5-yl)acrylamide] displayed a half-inhibitory concentration (IC50) (Homo sapiens) of 56 nM.

For the compound `C=CC(=O)Nc1ccc2c(c1)C(Nc1ccc(C(F)(F)F)cc1)C(F)C2` (stereo not shown) [Example 90, N-[2-fluoro-3-[4-(trifluoromethyl)anilino]-2,3-dihydro-1H-inden-5-yl]acrylamide], inhibition (Homo sapiens) was half-maximal at 84 nM (IC50).

In turn, “(S)—N-(1-((4-fluorophenyl)amino)-2,3-dihydro-1H-inden-5-yl)acrylamide [Example 6]” displayed a concentration for half-maximal inhibition (IC50) of 31 nM.

In the case of “(R)—N-(1-((3-(trifluoromethyl)phenyl)amino)-2,3-dihydro-1H-inden-5-yl)acrylamide [Example 2]”, the IC50 came out at 38 nM.

For `C=CC(=O)Nc1ccc2c(c1)CCC2Oc1cccc(OC(F)(F)F)c1` (stereo not shown) [Example 46, N-(1-(3-(trifluoromethoxy)phenoxy)-2,3-dihydro-1H-inden-5-yl)acrylamide], the IC50 (Homo sapiens) came to 4560 nM.

In turn, `C=CC(=O)Nc1ccc2c(c1)CC(N[C@H]1CC[C@H](C(F)(F)F)CC1)C2` (relative stereo) [Example 27, N-(2-(((trans)-4-(trifluoromethyl)cyclohexyl)amino)-2,3-dihydro-1H-inden-5-yl)acrylamide] registered a half-inhibitory concentration (IC50) (Homo sapiens) above 10000 nM.

With `C=CC(=O)Nc1ccc2c(c1)C(OCCC(F)(F)F)CC2` (stereo not shown) [Example 75, N-(3-(3,3,3-trifluoropropoxy)-2,3-dihydro-1H-inden-5-yl)acrylamide], the IC50 (Homo sapiens) is 4720 nM.

`C=CC(=O)Nc1ccc2c(c1)C(OC1CCC(C(F)(F)F)C1)CC2` (stereo not shown) [Example 71, N-(3-((3-(trifluoromethyl)cyclopentyl)oxy)-2,3-dihydro-1H-inden-5-yl)acrylamide]: the IC50 (Homo sapiens) worked out at 820 nM.

As to `C=CC(=O)Nc1ccc2c(c1)CCC2Nc1ccc(C(F)(F)F)cc1` (stereo not shown) [Example 10, N-(1-((4-(trifluoromethyl)phenyl)amino)-2,3-dihydro-1H-inden-5-yl)acrylamide], the half-inhibitory concentration (IC50) (Homo sapiens) worked out at 44 nM.

Compound `C=CC(=O)Nc1ccc2c(c1)CCC2N(C)c1ccccc1` (stereo not shown) [Example 63, N-(1-(methyl(phenyl)amino)-2,3-dihydro-1H-inden-5-yl)acrylamide] came in with a concentration for half-maximal inhibition (IC50) (Homo sapiens) of 144 nM.

Where the note is “Homo sapiens”, `C=CC(=O)Nc1ccc2c(c1)C[C@H](Nc1cccc(F)c1)C2` (single isomer, unassigned) [Example 49] came in with an IC50 of 105 nM.

As to `C=CC(=O)Nc1ccc2c(c1)CC[C@H]2Nc1ccc(C(F)(F)F)cc1` (single isomer, unassigned) [Example 55], 38 nM corresponded to half-maximal inhibition (Homo sapiens) (IC50).

`C=CC(=O)Nc1ccc2c(c1)CCC2Nc1cccc(S(F)(F)(F)(F)F)c1` (stereo not shown) [Example 54, N-(1-((3-(pentafluoro-I6-sulfanyl)phenyl)amino)-2,3-dihydro-1H-inden-5-yl)acrylamide] yielded a half-maximal inhibitory concentration (IC50) of 388 nM.

Regarding `C=CC(=O)N(C)c1ccc2c(c1)CCC2Oc1ccc(C(F)(F)F)cc1` (stereo not shown) [Example 83, N-methyl-N-(1-(4-(trifluoromethyl)phenoxy)-2,3-dihydro-1H-inden-5-yl)acrylamide], the IC50 (Homo sapiens) worked out at 109 nM.

On to `C=CC(=O)Nc1ccc2c(c1)C(Oc1ccc(F)cc1)CC2` (stereo not shown) [Example 42, N-(3-(4-fluorophenoxy)-2,3-dihydro-1H-inden-5-yl)acrylamide], for which the IC50 (Homo sapiens) came out at 29 nM.

Consider `C=CC(=O)Nc1ccc2c(c1)CCC2NCc1cccc(C(F)(F)F)c1` (stereo not shown) [Example 24, N-(1-((3-(trifluoromethyl)benzyl)amino)-2,3-dihydro-1H-inden-5-yl)acrylamide], for which the IC50 (Homo sapiens) came out at 8040 nM.

Take `C=CC(=O)Nc1ccc2c(c1)CC[C@H]2Oc1cccc(C(F)(F)F)c1` (single isomer, unassigned) [Example 85]: 42 nM corresponded to half-maximal inhibition (Homo sapiens) (IC50).

With `C=CC(=O)Nc1ccc2c(c1)CCC2Nc1cccc(OC)c1` (stereo not shown) [Example 17, N-(1-((3-methoxyphenyl)amino)-2,3-dihydro-1H-inden-5-yl)acrylamide], the 50% inhibitory concentration (IC50) (Homo sapiens) was above 10000 nM.

Take `C=CC(=O)Nc1ccc2c(c1)CC(Nc1cccc(C(F)(F)F)c1)C2` (stereo not shown) [Example 32, N-(2-((3-(trifluoromethyl)phenyl)amino)-2,3-dihydro-1H-inden-5-yl)acrylamide]: for the setting “Homo sapiens”, half-maximal inhibition (IC50) required 64 nM.

In the case of `C=CC(=O)Nc1ccc2c(c1)CC[C@@H]2Nc1ccc(C(F)(F)F)cc1` (single isomer, unassigned) [Example 56], the half-maximal inhibitory concentration (IC50) (Homo sapiens) came to 44 nM.

`C=CC(=O)Nc1ccc2c(c1)CC[C@@H]2Oc1cccc(C(F)(F)F)c1` (single isomer, unassigned) [Example 84] showed an IC50 (Homo sapiens) of 153 nM.

In turn, `C=CC(=O)Nc1ccc2c(c1)C(Nc1ccc(F)c(F)c1)CC2` (stereo not shown) [Example 13, N-(3-((3,4-difluorophenyl)amino)-2,3-dihydro-1H-inden-5-yl)acrylamide] returned a half-inhibitory concentration (IC50) (Homo sapiens) of 37 nM.

In turn, `C=CC(=O)Nc1ccc2c(c1)CC[C@H]2Nc1ccc(F)cc1` [Example 7, (R)—N-(1-((4-fluorophenyl)amino)-2,3-dihydro-1H-inden-5-yl)acrylamide] displayed a half-inhibitory concentration (IC50) (Homo sapiens) of 28 nM.

In the case of `C=CC(=O)Nc1ccc2c(c1)C(Nc1ccc(F)cc1)CC2` (stereo not shown) [Example 15, N-(3-((4-fluorophenyl)amino)-2,3-dihydro-1H-inden-5-yl)acrylamide], under “Homo sapiens”, 48 nM corresponded to half-maximal inhibition (IC50).

Consider `C=CC(=O)Nc1ccc2c(c1)CC[C@H]2Nc1cc(C(F)(F)F)ccn1` (single isomer, unassigned) [Example 58], for which 216 nM corresponded to half-maximal inhibition (Homo sapiens) (IC50).

The compound `C=CC(=O)Nc1ccc2c(c1)C(OCCCC(F)F)CC2` (stereo not shown) [Example 73, N-(3-(4,4-difluorobutoxy)-2,3-dihydro-1H-inden-5-yl)acrylamide] had a half-inhibitory concentration (IC50) (Homo sapiens) of 1310 nM.
